From US20160302412A1, “USES OF SALICYLIC ACID” (UNIVERSITY OF TENNESSEE RESEARCH FOUNDATION, priority 2013, published 2016)

System: snap bean seedling diseases (Pythium spp., Rhizoctonia solani, Macrophomina phaseolina, and Fusarium spp.)
Assay: Spring-planted 2013 snap bean field test
Conditions: in vivo

O.O.O=C([O-])c1ccccc1O.O=C([O-])c1ccccc1O.[Ca+2] [calcium salicylate, calcium salicylate dihyrate]
Overall snap bean yield: highest | Seedling emergence 15 days after planting (May 8): greatest | healthy plant stands: highest
